Molecules are shown by their SMILES.

Sequence of human TrkA (P04629 440-796): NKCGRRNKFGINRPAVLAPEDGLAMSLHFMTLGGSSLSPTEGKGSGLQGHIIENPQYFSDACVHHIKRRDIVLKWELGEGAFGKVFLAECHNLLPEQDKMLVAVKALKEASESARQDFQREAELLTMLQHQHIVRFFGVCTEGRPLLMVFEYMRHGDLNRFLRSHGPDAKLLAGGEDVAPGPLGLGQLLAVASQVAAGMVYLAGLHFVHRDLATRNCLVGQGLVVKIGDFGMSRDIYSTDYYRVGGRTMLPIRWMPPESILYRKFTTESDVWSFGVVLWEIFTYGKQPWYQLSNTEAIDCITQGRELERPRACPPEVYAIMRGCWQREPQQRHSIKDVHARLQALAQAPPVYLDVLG

The target of this assay is human TrkA (Homo sapiens (Human), UniProt P04629). The experiment in a line: Human TrkA inhibition assay (Test Example 2). Format: biochemical. The following applies: Table 155, human TrkA inhibition; read-out: IC50. A digest of the protocol:
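Mobility-shift readout of phosphorylated versus unphosphorylated fluorescent peptide gave conversion ratio, normalized to DMSO and no-enzyme wells; IC50 by logistic fit of 10- or 15-point 3-fold dilutions. Conditions: 1 nmol/L enzyme, 15 min compound preincubation, then 500 μmol/L ATP plus 1.5 μmol/L peptide, 120 min, 37 °C.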
As a reminder, the IC50 is the concentration that gives 50% inhibition. With `COCCN1C[C@@H](NC(=O)Nc2c(C)c(-c3cnc(C4=CCN(C)CC4)nc3)nn2-c2ccccc2)[C@H](c2ccnc(F)c2)O1` (racemic) [Compound I-445], the IC50 was below 100 nM.

As for `COCCN1C[C@@H](NC(=O)Nc2c(C)c(-c3cnc4c(cnn4CC(=O)OC)c3)nn2-c2ccccc2)[C@H](c2ccnc(F)c2)O1` (racemic) [Compound I-446], the IC50 was below 100 nM.

For the compound `COCC[C@@H]1C[C@@H](NC(=O)Nc2c(C)c(-c3cnn(C)c3)nn2-c2ccccn2)[C@H](c2ccc(F)c(F)c2)O1` (racemic) [Compound I-448], the IC50 was in the range of 100 to 1000 nM.

`CNC(=O)c1ccc(-c2nn(-c3ccccc3)c(NC(=O)N[C@@H]3CN(CCOC)O[C@H]3c3ccnc(F)c3)c2C)cn1` (racemic) [Compound I-452]: the IC50 was below 100 nM.

For the compound `CNC(=O)c1ccc(-c2nn(-c3ccccc3)c(NC(=O)N[C@@H]3CN(CCOC)O[C@H]3c3cnc(F)c(F)c3)c2C)cn1` (racemic) [Compound I-453], the IC50 is below 100 nM.

Consider `COCCN1C[C@@H](NC(=O)Nc2c(C)c(OCc3ccccn3)nn2-c2ccccc2)[C@H](c2ccnc(F)c2)O1` (racemic) [Compound I-454], for which the IC50 was below 100 nM.

Take `COCCN1C[C@@H](NC(=O)Nc2c(C)c(OCc3cccnc3)nn2-c2ccccc2)[C@H](c2ccnc(F)c2)O1` (racemic) [Compound I-455]: the IC50 was below 100 nM.

On to `COCCN1C[C@@H](NC(=O)Nc2c(C)c(OCc3ccncc3)nn2-c2ccccc2)[C@H](c2ccnc(F)c2)O1` (racemic) [Compound I-456], for which the IC50 is below 100 nM.

`COCCN1C[C@@H](NC(=O)Nc2c(C)c(OCc3ccon3)nn2-c2ccccc2)[C@H](c2ccnc(F)c2)O1` (racemic) [Compound I-457]: the IC50 was below 100 nM.

Consider `COCCN1C[C@@H](NC(=O)Nc2c(C)c(-c3cnc(C(C)(C)O)c(F)c3)nn2-c2ccccc2)[C@H](c2ccnc(F)c2)O1` (racemic) [Compound I-459], for which the IC50 was below 100 nM.

`COCCN1C[C@@H](NC(=O)Nc2c(C)c(-c3cnc4c(c3)OCCO4)nn2-c2ccccc2)[C@H](c2cnc(F)c(F)c2)O1` (racemic) [Compound I-462]: the IC50 is below 100 nM.

`COCCN1C[C@@H](NC(=O)Nc2c(C)c(-c3cnc(OC4COC4)nc3)nn2-c2ccccc2)[C@H](c2ccnc(F)c2)O1` (racemic) [Compound I-465]: the IC50 is below 100 nM.

As for `COCCN1C[C@@H](NC(=O)Nc2c(C)c(-c3cnc4c(cnn4CC(=O)N4CCN(C)CC4)c3)nn2-c2ccccc2)[C@H](c2ccnc(F)c2)O1` (racemic) [Compound I-467], the IC50 was below 100 nM.

In the case of `COc1ncc(-c2nn(-c3ccccc3)c(NC(=O)N[C@@H]3CN(C)O[C@H]3c3ccc(F)c(F)c3)c2C)cn1` (racemic) [Compound I-468], the IC50 was below 100 nM.

As to `CNC(=O)c1cc(-c2nn(-c3ccccc3)c(NC(=O)N[C@@H]3CN(C)O[C@H]3c3ccc(F)c(F)c3)c2C)cnc1OC` (racemic) [Compound I-469], the IC50 is below 100 nM.

As for `COCCN1C[C@@H](NC(=O)Nc2c(C)c(-c3ccc4nccn4c3)nn2-c2ccccc2)[C@H](c2ccnc(F)c2)O1` (racemic) [Compound I-470], the IC50 was below 100 nM.

As for `COCCN1C[C@@H](NC(=O)Nc2c(C)c(-c3ccn4ccnc4c3)nn2-c2ccccc2)[C@H](c2ccnc(F)c2)O1` (racemic) [Compound I-471], the IC50 was below 100 nM.

In the case of `COCCN1C[C@@H](NC(=O)Nc2c(C)c(OCc3cnn(C)c3)nn2-c2ccccc2)[C@H](c2ccnc(F)c2)O1` (racemic) [Compound I-472], the IC50 is below 100 nM.

Take `CNC(=O)c1cc(-c2nn(-c3ccccc3)c(NC(=O)N[C@@H]3CNO[C@H]3c3ccc(F)c(F)c3)c2C)cnc1OC` (racemic) [Compound I-474]: the IC50 is 100 to 1000 nM.

For `COCCN1C[C@@H](NC(=O)Nc2c(C)c(-c3cnc(-c4cnoc4)nc3)nn2-c2ccccc2)[C@H](c2ccnc(F)c2)O1` (racemic) [Compound I-476], the IC50 was below 100 nM.

These data come from patent US10640495B2, “Heterocycle derivatives having TrkA inhibitory activity” (Shionogi & Co., Ltd., priority 2015, dated 2020).
